Source: the NIST ThermoML archive (doi:10.1021/je700428f)

Experiment: xn = mol fraction of the nth substance listed
Details: 101 kPa, Liquid; for viscosity: Capillary tube (Ostwald / Ubbelohde) method

COC(C)(C)C [2-methoxy-2-methylpropane] + CCCCCCCCCC
Details	mass density [kg/m3]	viscosity [mPa·s]
288.15 K, x1 = 0.6866	738.97	–
288.15 K, x1 = 0.7973	740.88	–
288.15 K, x1 = 0.8999	743.23	–
288.15 K, x1 = 1	745.85	–
293.15 K, x1 = 0.1016	–	0.855
293.15 K, x1 = 0.1019	730.2	–
293.15 K, x1 = 0.2002	–	0.795
293.15 K, x1 = 0.2041	730.55	–
293.15 K, x1 = 0.3003	–	0.743
293.15 K, x1 = 0.3077	731.09	–
293.15 K, x1 = 0.3999	731.66	–
293.15 K, x1 = 0.4013	–	0.678
293.15 K, x1 = 0.4992	–	0.622
293.15 K, x1 = 0.5005	732.44	–
293.15 K, x1 = 0.6005	–	0.563
293.15 K, x1 = 0.6066	733.47	–
293.15 K, x1 = 0.6866	734.47	–
293.15 K, x1 = 0.7	–	0.507
293.15 K, x1 = 0.7973	736.17	–
293.15 K, x1 = 0.8005	–	0.454
293.15 K, x1 = 0.8996	–	0.402
293.15 K, x1 = 0.8999	738.3	–
293.15 K, x1 = 1	740.65	–
298.15 K, x1 = 0.1016	–	0.797
298.15 K, x1 = 0.1019	726.35	–
298.15 K, x1 = 0.2002	–	0.742
298.15 K, x1 = 0.2041	726.62	–
298.15 K, x1 = 0.3003	–	0.692
298.15 K, x1 = 0.3077	727.06	–
298.15 K, x1 = 0.3999	727.53	–
298.15 K, x1 = 0.4013	–	0.635
298.15 K, x1 = 0.4992	–	0.584
298.15 K, x1 = 0.5005	728.19	–
298.15 K, x1 = 0.6005	–	0.531
298.15 K, x1 = 0.6066	729.07	–
298.15 K, x1 = 0.6866	729.94	–
298.15 K, x1 = 0.7	–	0.479
298.15 K, x1 = 0.7973	731.44	–
298.15 K, x1 = 0.8005	–	0.428
298.15 K, x1 = 0.8996	–	0.379
298.15 K, x1 = 0.8999	733.33	–
298.15 K, x1 = 1	735.4	–
303.15 K, x1 = 0.1016	–	0.744
303.15 K, x1 = 0.1019	722.46	–
303.15 K, x1 = 0.2002	–	0.695
303.15 K, x1 = 0.2041	722.68	–
303.15 K, x1 = 0.3003	–	0.65
303.15 K, x1 = 0.3077	723.02	–
303.15 K, x1 = 0.3999	723.38	–
303.15 K, x1 = 0.4013	–	0.597
303.15 K, x1 = 0.4992	–	0.55
303.15 K, x1 = 0.5005	723.93	–
303.15 K, x1 = 0.6005	–	0.5
303.15 K, x1 = 0.6066	724.65	–
303.15 K, x1 = 0.6866	725.39	–
303.15 K, x1 = 0.7	–	0.452
303.15 K, x1 = 0.7973	726.66	–
303.15 K, x1 = 0.8005	–	0.405
303.15 K, x1 = 0.8996	–	0.358
303.15 K, x1 = 0.8999	728.32	–
303.15 K, x1 = 1	730.1	–
308.15 K, x1 = 0.1016	–	0.698
308.15 K, x1 = 0.1019	718.59	–
308.15 K, x1 = 0.2002	–	0.653
308.15 K, x1 = 0.2041	718.72	–
308.15 K, x1 = 0.3003	–	0.606
308.15 K, x1 = 0.3077	718.96	–
308.15 K, x1 = 0.3999	719.22	–
308.15 K, x1 = 0.4013	–	0.562
308.15 K, x1 = 0.4992	–	0.519
308.15 K, x1 = 0.6005	–	0.474
308.15 K, x1 = 0.7	–	0.428
308.15 K, x1 = 0.8005	–	0.382
